In patent publication US4191780A, “Bromhexine derivatives and process for making same” (priority 1978, dated 1980):

How the values were obtained:
[1] = test system: Cough elicited by 15% citric acid spray; assay: Antitussive activity in mice, citric acid spray cough; assay type: in vivo; details: Mus musculus, oral, 1 hour after administration, confidence limits P = 0.05
Experimental: (§1) (6) Antitussive effect in Guinea-pigs and mice
(§2) Cough is elicited by 15% citric acid spray in both species, according to the method by Harsany et al. (Boll. Chim. Farm. 112, 691, 1973). The effect was tested 1 hour after oral administration and 30 min. after intraperitoneal application of the antitussive agents on mice and Guinea-pigs respectively.
(§3) ED50 values of the drugs are computed by the method of Litchfield and Wilcoxon (Litchfield, J. T. Jr., and Wilcoxon F., J. Pharmacol. exp. Ther. 96,99--1949).

[2] = Eight-day toxicity studies in mice, lethality (i.p.); assay type: in vivo; details: for Total number of deaths: 8 days
Text: Eight-day toxicity studies of IFT 1026 and Bromhexine in mice.

[3] = Long-term toxicity in rats: organ weights at necropsy; assay type: in vivo; details: fresh weight, daily oral 250 mg/kg Bromhexine, 350 mg/kg IFT 1026
Experimental: Effect of daily oral administration of 250 mg/kg Bromhexine and 350 mg/kg
organ weights of rats, expressed as grams of fresh weight.

[4] = test system: Pain induced by a chemical stimulus; assay: Siegmund Test: pain induced by a chemical stimulus (acetic acid writhing); assay type: in vivo, mice; details: mouse, 300 mg/kg oral
Experimental: (§4) Two test methods are used for establishing the action of Bromhexine and IFT 1026 on noci-ceptive stimuli in mice.
(§5) (a) Pain induced by a chemical stimulus according to the method of Siegmund (Siegmund E., Cadmier, R., and Lu, G. Proc. Soc. exp. Biol. N.Y. 95, 729--1957). The mice distributed at random into groups of 10 animals, are deprived of solid food for the 18-hour period prior to the test. […] Thirty minutes after treatment the mice are injected i.p. with 0.1 ml/10 g of a 1.5% acetic acid solution. The writhing is recorded for a 20 min. period following this i.p. injection.

[5] = test system: Cough elicited by 15% citric acid spray; assay: Antitussive activity in Guinea-pigs, citric acid spray cough; assay type: in vivo; details: Cavia porcellus, ip, 0.5 h, intraperitoneal, 30 min. after application, confidence limits P = 0.05
Experimental: as §1, §2, §3

[6] = Long-term toxicity in rats: mortality, pathology and general state; details: rat, in vivo
Experimental: Long-term toxicity (16 weeks) of IFT 1026 is tested in comparison to the parent compound (Bromhexine).

noci-ceptive stimuli = assay: Study of analgesic action on mice (both tests); assay type: in vivo; details: 300 mg/kg oral
Experimental: as §4, §5
(§6) (b) Pain induced by a physical stimulation according to the hot-plate test technique by Eddy and Leimbach (Eddy, N. B. and Leimbach, O., J. Pharmacol. exp.Ther. 107, 383--1953). The temperature of the plate was kept at 57° C. Groups of 12 mice are treated as described under (a) above. The reaction times are measured 15 min. before treatment (Ro) and 4 times after the administration (every 15 min). Only the maximal response is taken into account (Rmax).

[7] = Long-term toxicity in rats: hematological parameters; assay type: in vivo, rat; details: daily oral Bromhexine 250 mg/kg, IFT 1026 350 mg/kg
Experimental: The hematological and biochemical values relating to the groups under treament with the above reported doses are shown in Tables Nos. 4 and 5. These values are virtually the same for both treated and control animals.
Effect of daily oral administration of Bromhexine 250 mg/kg
and IFT 1026 350 mg/kg on the hematological parameters in […]

[8] = Long-term toxicity in rats: biochemical parameters; assay type: in vivo, rat; details: daily oral 250 mg/kg Bromhexine, 350 mg/kg IFT 1026
[9] = Long-term toxicity in rats (16 weeks): mean body weight; assay type: in vivo
Text: Effect of daily oral administration of various doses of
IFT 1026 and Bromhexine on mean body weight of rats.

[10] = test system: Pain induced by a physical stimulation; assay: Hot-plate Test (Eddy and Leimbach): pain induced by a physical stimulation; assay type: in vivo, mice; details: mouse, 300 mg/kg oral, plate at 57° C.
Experimental: as §4, §6

[11] = Bromsulphtalein (BSP) clearance in rats treated with the lower dose; assay type: in vivo; details: 30 min after 50 mg/kg BSP i.v., lower dose of drug
Experimental: The possibility to use BSP for the diagnosis of lesions in liver parenchyma is well known. Bromsulphtalein (BSP) clearance was made according to Carpi and Parenti (Carpi, C. and M. A. Parenti, Il Farmaco, Ed. Pr. vol. 17, page 45, 1962). Thirty minutes after the i.v. administration of 50 mg/kg BSP to control rats, the mean plasma level of the dyestuff is 80±12 mcg/ml.
% of rate showing BSP plasma levels greater than 80 mcg/ml
(control values) and 160 mcg/ml (two-fold control values)

CN(Cc1cc(Br)cc(Br)c1N)C1CCCCC1 [Bromhexine, N-cyclohexyl-N-methyl-2-(2-amino-3,5-dibromo)benzylammonium chloride]
ED50 [1]: 194 mg/kg | Number of deaths at day 3 ([2]; daily dose 300 mg/k): 1 | Number of deaths at day 6 ([2]; daily dose 300 mg/k): 1 | Total number of deaths ([2]; daily dose 300 mg/k): 2/10 | Number of deaths at day 3 ([2]; daily dose 600 mg/k): 1 | Number of deaths at day 5 ([2]; daily dose 600 mg/k): 1 | Number of deaths at day 6 ([2]; daily dose 600 mg/k): 1 | Number of deaths at day 7 ([2]; daily dose 600 mg/k): 1 | Number of deaths at day 8 ([2]; daily dose 600 mg/k): 1 | Total number of deaths ([2]; daily dose 600 mg/k): 5/10 | organ weight, Adrenal glands ([3]; females): 4.7 ± 0.1 10^-2 grams | organ weight, Brain ([3]; females): 19.7 ± 0.5 10^-1 grams | organ weight, Heart ([3]; females): 8.3 ± 0.2 10^-1 grams | organ weight, Kidneys ([3]; females): 18.8 ± 0.9 10^-1 grams | organ weight, Liver ([3]; females): 10.5 ± 0.2 grams | organ weight, Lungs ([3]; females): 14.4 ± 0.9 10^-1 grams | organ weight, Spleen ([3]; females): 7.9 ± 0.2 10^-1 grams | organ weight, Adrenal glands ([3]; males): 3.8 ± 0.2 10^-2 grams | organ weight, Brain ([3]; males): 14 ± 1 10^-1 grams | organ weight, Heart ([3]; males): 8.8 ± 1.4 10^-1 grams | organ weight, Kidneys ([3]; males): 18.4 ± 0.5 10^-1 grams | organ weight, Liver ([3]; males): 10.6 ± 0.2 grams | organ weight, Lungs ([3]; males): 11.6 ± 1.7 10^-1 grams | organ weight, Spleen ([3]; males): 6 ± 0.6 10^-1 grams | Siegmund Test, number of writhings for a 20 min. period, mean ± SE [4]: 32 ± 3 | ED50 [5]: 143 mg/kg | animals that died during the study [6]: Five | rats displaying liver steatosis [6]: Four | Responses to algogenic stimuli (noci-ceptive stimuli): not suppressed | RBC, mean ± SE ([7]; females): 752 ± 37 10^6 /ml | WBC, mean ± SE ([7]; females): 132 ± 5 10^2 /ml | RBC, mean ± SE ([7]; males): 774 ± 63 10^6 /ml | WBC, mean ± SE ([7]; males): 168 ± 20 10^2 /ml | A/G ratio (Albumin/Globulin), mean ± SE ([8]; females): 2.6 ± 0.1 | BUN, mean ± SE ([8]; females): 44.9 ± 4 mg % | GLUCOSE, mean ± SE ([8]; females): 77.1 ± 9 mg % | SGOT, mean ± SE ([8]; females): 24.1 ± 0.5 Units/ml | SGPT, mean ± SE ([8]; females): 12.6 ± 0.3 Units/ml | TOTAL PROTEIN, mean ± SE ([8]; females): 25.8 ± 1.1 mg/mL | A/G ratio (Albumin/Globulin), mean ± SE ([8]; males): 2.4 ± 0.2 | BUN, mean ± SE ([8]; males): 34.5 ± 3 mg % | GLUCOSE, mean ± SE ([8]; males): 88.5 ± 6 mg % | SGOT, mean ± SE ([8]; males): 24.8 ± 0.5 Units/ml | SGPT, mean ± SE ([8]; males): 12.7 ± 0.15 Units/ml | TOTAL PROTEIN, mean ± SE ([8]; males): 27.1 ± 2.5 mg/mL | body weight, mean ± SE ([9]; females, 50 mg/kg daily oral, 0 days): 110 ± 5 g | body weight, mean ± SE ([9]; females, 50 mg/kg daily oral, 21 days): 174 ± 2 g | body weight, mean ± SE ([9]; females, 50 mg/kg daily oral, 45 days): 217 ± 4 g | body weight, mean ± SE ([9]; females, 50 mg/kg daily oral, 60 days): 229 ± 4 g | body weight, mean ± SE ([9]; females, 250 mg/kg daily oral, 0 days): 109 ± 6 g | body weight, mean ± SE ([9]; females, 250 mg/kg daily oral, 21 days): 158 ± 5 g | body weight, mean ± SE ([9]; females, 250 mg/kg daily oral, 45 days): 206 ± 4 g | body weight, mean ± SE ([9]; females, 250 mg/kg daily oral, 60 days): 230 ± 3 g | body weight, mean ± SE ([9]; females, 1000 mg/kg daily oral, 0 days): 117 ± 6 g | body weight, mean ± SE ([9]; females, 1000 mg/kg daily oral, 21 days): 147 ± 13 g | body weight, mean ± SE ([9]; females, 1000 mg/kg daily oral, 45 days): 157 ± 7 g | body weight, mean ± SE ([9]; females, 1000 mg/kg daily oral, 60 days): 188 ± 12 g | body weight, mean ± SE ([9]; males, 50 mg/kg daily oral, 0 days): 115 ± 9 g | body weight, mean ± SE ([9]; males, 50 mg/kg daily oral, 21 days): 225 ± 6 g | body weight, mean ± SE ([9]; males, 50 mg/kg daily oral, 45 days): 295 ± 7 g | body weight, mean ± SE ([9]; males, 50 mg/kg daily oral, 60 days): 365 ± 7 g | body weight, mean ± SE ([9]; males, 250 mg/kg daily oral, 0 days): 118 ± 12 g | body weight, mean ± SE ([9]; males, 250 mg/kg daily oral, 21 days): 218 ± 7 g | body weight, mean ± SE ([9]; males, 250 mg/kg daily oral, 45 days): 285 ± 8 g | body weight, mean ± SE ([9]; males, 250 mg/kg daily oral, 60 days): 355 ± 9 g | body weight, mean ± SE ([9]; males, 1000 mg/kg daily oral, 0 days): 110 ± 7 g | body weight, mean ± SE ([9]; males, 1000 mg/kg daily oral, 21 days): 180 ± 9 g | body weight, mean ± SE ([9]; males, 1000 mg/kg daily oral, 45 days): 250 ± 8 g | body weight, mean ± SE ([9]; males, 1000 mg/kg daily oral, 60 days): 290 ± 12 g | variations in the body weights versus control group ([9]; rats, exception: Bromhexine 1000 mg/kg/day): lower values than their control group | Hot-plate Test (R max/Ro), mean ± SE [10]: 1.5 ± 0.18 | % showing BSP plasma levels >160 mcg/ml ([11]; X^2 = 0.43, N.S.): 12% | rats showing BSP plasma levels >160 mcg/ml, number/tested ([11]; X^2 = 0.43, N.S.): 2/17 | % showing BSP plasma levels >80 mcg/ml ([11]; X^2 = 0.7, N.S.): 41% | rats showing BSP plasma levels >80 mcg/ml, number/tested ([11]; X^2 = 0.7, N.S.): 7/17
